The values that follow come from patent publication US20120219568A1, “EPIDITHIODIOXO[…] USES THEREOF IN TREATING CANCER” (priority 2011, published 2012).

The test system of assay [1] is 6 other human colon carcinoma cells. The assay is described as follows: TRAIL sensitization in other colon carcinoma cells. Type of assay: cell-based. To be noted: verticillin A and TRAIL. As for the experimental part: (§1) Cells were seeded in wells of 96-well plates for 2 days and then treated with different concentrations of mushroom extract fractions or purified verticillin A for 2 days. The cells were stained with propidium iodide (PI) (Trevigen, Gaithersburg, Md.) or PI plus annexin V-Alex Fluor 647 (Biolegend, San Diego, Calif.) and analyzed by flow cytometry.
The sensitization effects of verticillin A was examined in other types of tumor cells.

The next assay relates to BNIP3. Briefly: BNIP3 expression level. The format is cell-based, human. To be noted: SW620 and HepG2 cells. As for the experimental part: Because verticillin A enhances tumor cell apoptosis through the mitochondrion-dependent pathway, the expression levels of apoptosis-related genes of the mitochondrion-mediated apoptosis pathway was analyzed.
Another assay has as its system HepG2 tumor. Briefly: HepG2 tumor growth in athymic mice. Type of assay: in vivo. To be noted: intravenous injection. As for the experimental part:
To determine whether the growth inhibitory effect of verticillin A can be extended to in vivo tumor growth inhibition, HepG2 cells were injected subcutaneously to athymic mice. Tumor-bearing mice were then treated with verticillin A by intravenous injection.
(§2) Athymic mice were subcutaneously inoculated with human hepatoma HepG2 and colon carcinoma SW620 cells, respectively. The tumor-bearing mice were randomized into experimental groups. The control mice were given saline. The treatment group was intravenously injected with verticillin A at the doses of 1 and 2 mg/kg body weight. Tumor size was measured in 2 diameter with micrometer caliper at the indicate times to permit calculation of tumor volume, V=(a×b^2)/2, where “a” is the length and “b” is the width in millimeters. At the end of the experiment, all the animals were sacrificed, The tumor inhibitory rates were calculated using the following formula: [(mean tumor volume of control nude mice−mean tumor volume of treated nude mice)/mean tumor volume of control nude mice]×100%.

For assay [2], the system named is HepG2 cells. Briefly: MTT growth inhibition, HepG2. Type of assay: cell-based, human. As for the experimental part: (§3) For cell viability assay, cells were seeded in wells of 96-well plates for 2 days and then treated with different concentrations of mushroom extract fractions or purified verticillin A for 2 days. The cells were then incubated with MTT (3-(4,5-dimethylthiazol-2-yl)-2,5-diphenyltetrazolium bromide) using the MTT assay kit (ATCC, Manassas, Va.) according to the manufacturer's instructions.
(§4) The growth inhibitory effort of the purified verticillin A was examined on HepG2 cells. Tumor cells were cultured in the presence of different concentrations of verticillin A and analyzed for the growth by MTT assay 24 and 72 h later, respectively. […] To determine whether the growth inhibitory effect is due to increased tumor cell death, genomic DNA was isolated from the treated tumor cells and analyzed by agarose gel electrophoresis.
(§5) To determine whether verticillin A inhibits other types of tumor cell growth, Mammary carcinoma (Bcap-37 and MCF-7), heptocarcinoma (HepG2), cervical (HeLa), liver (SMMC-7721), lung (SPC-A1) cancer cells and T cell leukemia (Jurkat) were cultured in the presence of different concentrations of verticillin A and examined for the efforts of verticillin A on the growth rate of these tumor cells in vitro.

In another assay the test system is Jurkat. Briefly: MTT growth inhibition, Jurkat. The format is cell-based. To be noted: Homo sapiens, T Cell Leukemia, MTT assay. As for the experimental part:
as §3, §5
(In general: Formazan colour is commonly taken as a measure of viable cells.)

The subject of assay [3] is SW620 cells. Briefly: Apoptosis and TRAIL sensitization of SW620 cells (PI/annexin V flow cytometry). Type of assay: cell-based, human. As for the experimental part: as §1
SW620 is a metastatic human colon carcinoma cell line that is resistant to TRAIL-induced apoptosis (Voelkel-Johnson C, et al. Mol Cancer Ther 2005 4(9):1320-7).

For the next assay, the system named is Hela. Briefly: MTT growth inhibition, Hela. Type of assay: cell-based. To be noted: Homo sapiens, Cervical Cancer, MTT assay. The method, then:
as §3, §5

Assay [4] deals with HepG2 cells. The assay is described as follows: DNA fragmentation assay. To be noted: HepG2, agarose gel electrophoresis. The format is cell-based, human. As for the experimental part:
Tumor cells were lysed in lysis buffer (5 mM Tris-HCl, pH 8.0, 100 mM Ethylenediaminetetraacetic acid (EDTA), 1% (w/v) Sodium dodecyl sulfate (SDS), and proteinase K) at 45° C. for 2 h. RNA was removed by incubation with RNase A. Genomic DNA was extracted by phenol/chloroform/isoamyl alcohol (25:24:1) and precipitated with ethanol. The purified genomic DNA was then analyzed by electrophoresis in a 1.2% agarose gel.
as §4

In assay [5] the test system is SW620 cells. The assay is described as follows: Cytochrome C release. Type of assay: cell-based, human. To be noted: SW620, combinational treatment of verticillin A and TRAIL. The method, then: Tumor cells were lysed in lysis buffer containing 20 mM HEPES, pH 7.4, 20 mM NaCl, 10% glycerol, 1% Triton X-100, and a protease inhibitor cocktail (Calbiochem, La Jolla, Calif.). Cellular proteins were separated by 12% or 4-20% SDS-PAGE gradient gels, transferred to Immobilon-P membranes (Millipore, Bedford, Mass.) or nitrocellulose (Bio-Rad, Hercules, Calif.), and probed with the following primary antibodies: anti-FLIP (Cell Sinnaling, Danvers, Mass.) at 1:250; anti-survivin (Santa Cruz Biotech) at 1:100; anti-cIAP1 (cell signaling) at 1:250; anti-xIAP (cell Signaling) at 1:500; anti-Bad (Cell Signaling) at 1:1000; anti-Bax (Cell Signaling) at 1:2000; anti-Mcl-1 (Santa Cruz) at 1:100); anti-A-CDase (BD Biosciences) at 1:1000; anti-CytC (BD Biosciences) at 1:1000; and β-actin (Sigma, St Louis, Mo.) at 1:8000. The blots were then washed and incubated with horseradish peroxidase-conjugated anti-goat (Santa Cruz Biotech), anti-mouse or rabbit (Amersham-Pharmacia, Piscataway, N.J.) IgGs. Blots were detected using the ECL Plus Western detection kit (Amersham Pharmacia Biotech).

The next assay deals with SW620 tumor xenograft. Briefly: SW620 tumor xenograft growth in athymic mice. The format is in vivo. As for the experimental part:
as §2
The disclosed observations indicate that verticillin A can dramatically increase TRAIL-induced tumor cell apoptosis. To determine whether these in vitro observations can be extended to enhance TRAIL-mediated tumor suppression in vivo, SW620 cells were injected subcutaneously to athymic mice, verticillin A and TRAIL, either used as single agent or in combination, were then injected to the tumor-bearing mice. Tumor growth rate were measured in different time points. Verticillin A can inhibit tumor cell growth in vitro at high dose and sensitize tumor cells to TRAIL-induced apoptosis at a low dose. […] As expected, SW620 tumors are resistant to TRAIL (Voelkel-Johnson C, et al. Mol Cancer Ther 2005 4(9):1320-7).

Molecules are shown by their SMILES.

Take `CN1C(=O)[C@]23SS[C@]1(C)C(=O)N2C1Nc2ccccc2[C@@]1(C12c4ccccc4NC1N1C(=O)[C@@]4(C)SS[C@]1(C(=O)N4C)[C@H]2O)[C@@H]3O` (stereo partly drawn) [Verticillin A]: the “sensitization to TRAIL-induced apoptosis” value is listed as “sensitization effect of verticillin A was also observed” in [1] and “dramatically sensitized SW620 cells to TRAIL-induced apoptosis” with SW620 cells [3] (SW620, 10 nM verticillin A in combination with TRAIL). Further, the BNIP3 expression level entry in the assay with BNIP3 was “increased BNIP3 expression level in a dose-dependent manner”. In addition, in the assay with HepG2 tumor (2 mg/kg body weight), the “HepG2 tumor growth inhibition” value was “significantly inhibited HepG2 tumor growth”. In addition, the “HepG2 tumor growth inhibition, dose dependence” value with HepG2 tumor (1 and 2 mg/kg body weight) is listed as “tumor growth inhibitory effects at a dose-dependent manner”. For the same compound, the “concentration at which the inhibitory effect reached plateau” value in the assay with HepG2 cells [2] (HepG2, MTT assay 24 and 72 h) was 100 to 150 nM. The “lowest concentration exhibiting growth inhibitory effect” value in the assay on HepG2 cells [2] (HepG2, MTT assay 24 and 72 h) is 10 nM. Besides, the IC50 turned out to be 62 nM with HepG2 cells [2] (Homo sapiens, Hepatoma, HepG2, MTT assay); 37 nM with Jurkat; 122 nM with Hela. The “inhibitory activity against HepG2 cells” value in the assay on HepG2 cells [2] (purified compound, cytotoxicity screen) is given as “potent inhibitory activity”. In addition, the “apoptosis induction, single agent” value with SW620 cells [3] (SW620, agent alone) is recorded as “induced significant apoptosis”. For the same compound, the “concentration that overcomes TRAIL resistance” value in the assay with SW620 cells [3] (human cancer cells) is given as 10 nM. The “genomic DNA fragmentation” value with HepG2 cells [4] is given as “induces genomic DNA fragmentation”. The “cytochrome C release” value in the assay on SW620 cells [5] is recorded as “dramatically increased cytochrome C release”. In addition, in the assay with SW620 tumor xenograft (0.125 mg/kg body weight), the “tumor suppression activity, verticillin A alone” value was “did not exhibit significant tumor suppression activity”. Further, in the assay with SW620 tumor xenograft (low dose verticillin A (0.125 mg/kg) and TRAIL), the “tumor xenograft growth, combination treatment” value is “significantly inhibited the tumor xenograft growth”. Moreover, the “lowest dose enhancing the efficacy of TRAIL in suppressing human cancer growth” value in the assay on SW620 tumor xenograft (nude mice) was 0.125 mg/kg.

A word on the IC50: it is the concentration that gives 50% inhibition.
